# According to patent US20240116922A1, “IMIDAZO[1,2-A]PYRIDINE DERIVATIVES AS IRAK4 INHIBITORS AND THEIR USE IN THE TREATMENT OF DISEASE” (BIOGEN MA INC., priority 2020, published 2024):
# Structures can show the parent of a compound that is named as a salt.
# Key:
# [1] = target: MDR1 (Homo sapiens (Human), UniProt P08183); test: in vitro; conditions: MDCK-MDR1
# [2] = Kinetic solubility assay (CLND), pH 6.8; format: physicochemical; conditions: aqueous buffer, kinetic from dmso stock; potassium phosphate buffer pH 6.8, 2% DMSO, 24 hours at ambient temperature
# [3] = target: IRAK4 (Homo sapiens (Human), UniProt Q9NWZ3); test: IRAK4 MSD biochemical assay (2-hour 1 mM ATP); conditions: 0.1 nM IRAK4, 1 mM ATP, 2 hour at room temperature
# IRAK4, sequence (Q9NWZ3 whole entry): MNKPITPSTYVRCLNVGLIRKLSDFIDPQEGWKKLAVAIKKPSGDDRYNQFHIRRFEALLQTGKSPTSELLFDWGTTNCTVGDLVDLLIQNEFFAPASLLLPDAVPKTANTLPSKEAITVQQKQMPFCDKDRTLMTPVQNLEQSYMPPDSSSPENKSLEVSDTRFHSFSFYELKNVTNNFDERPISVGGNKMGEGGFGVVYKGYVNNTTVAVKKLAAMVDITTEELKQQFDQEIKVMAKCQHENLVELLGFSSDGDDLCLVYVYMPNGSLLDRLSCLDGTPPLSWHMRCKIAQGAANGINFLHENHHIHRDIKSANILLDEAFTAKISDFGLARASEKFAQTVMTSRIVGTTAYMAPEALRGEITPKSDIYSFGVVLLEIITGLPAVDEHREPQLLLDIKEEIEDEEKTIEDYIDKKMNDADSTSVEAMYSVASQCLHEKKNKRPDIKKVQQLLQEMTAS
# MDR1, sequence (P08183 whole entry): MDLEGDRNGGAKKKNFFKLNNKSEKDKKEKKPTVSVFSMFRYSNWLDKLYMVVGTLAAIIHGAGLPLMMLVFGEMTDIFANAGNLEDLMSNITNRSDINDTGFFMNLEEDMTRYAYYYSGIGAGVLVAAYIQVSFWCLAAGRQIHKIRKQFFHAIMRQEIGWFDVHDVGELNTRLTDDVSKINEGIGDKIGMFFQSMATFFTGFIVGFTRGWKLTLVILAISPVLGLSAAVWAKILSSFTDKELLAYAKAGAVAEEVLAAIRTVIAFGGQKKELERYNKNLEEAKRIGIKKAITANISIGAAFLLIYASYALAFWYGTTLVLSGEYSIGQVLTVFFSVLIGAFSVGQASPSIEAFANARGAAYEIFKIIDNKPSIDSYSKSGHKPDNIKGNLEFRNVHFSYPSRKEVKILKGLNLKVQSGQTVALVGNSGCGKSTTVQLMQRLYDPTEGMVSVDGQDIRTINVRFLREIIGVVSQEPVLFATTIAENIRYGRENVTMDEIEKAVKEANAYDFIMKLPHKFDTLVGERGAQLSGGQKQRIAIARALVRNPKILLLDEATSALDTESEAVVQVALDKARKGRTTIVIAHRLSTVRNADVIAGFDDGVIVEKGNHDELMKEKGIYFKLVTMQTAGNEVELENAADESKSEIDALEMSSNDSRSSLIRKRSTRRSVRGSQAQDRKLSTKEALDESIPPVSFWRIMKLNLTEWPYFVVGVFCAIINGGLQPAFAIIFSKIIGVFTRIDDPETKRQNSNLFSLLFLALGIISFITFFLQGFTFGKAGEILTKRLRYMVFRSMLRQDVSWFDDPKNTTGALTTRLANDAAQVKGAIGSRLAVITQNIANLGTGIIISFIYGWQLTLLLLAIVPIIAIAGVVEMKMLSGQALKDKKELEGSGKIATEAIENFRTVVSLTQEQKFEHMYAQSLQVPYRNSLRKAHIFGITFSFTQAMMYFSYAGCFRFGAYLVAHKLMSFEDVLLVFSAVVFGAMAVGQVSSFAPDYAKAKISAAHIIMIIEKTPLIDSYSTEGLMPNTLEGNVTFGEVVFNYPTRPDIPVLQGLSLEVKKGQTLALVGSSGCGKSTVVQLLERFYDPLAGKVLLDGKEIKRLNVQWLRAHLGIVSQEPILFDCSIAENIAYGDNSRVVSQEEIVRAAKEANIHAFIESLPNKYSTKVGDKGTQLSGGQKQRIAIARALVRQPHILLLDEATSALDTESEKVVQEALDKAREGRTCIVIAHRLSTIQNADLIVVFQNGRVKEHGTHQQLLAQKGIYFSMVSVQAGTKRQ
SMILES,"efflux ratio at 120 min, 1 μM [1]",solubility kinetic at 24 h [2] [µg/mL],IC50 [3] [nM]
"CC[C@@H](C)Oc1cc2nc([C@@]34CC[C@@](C)(C3)OC4)cn2cc1C(=O)Nc1cccn(C2CC2)c1=O (single isomer, unassigned) [Example 21]",3.2,61.3,0.9
"CC(C)Oc1cc2nc([C@]34CC[C@](C)(C3)OC4)cn2cc1C(=O)Nc1ccnn(C2CC2)c1=O [Example 75, N-(2-cyclopropyl-3-oxo-2,3-dihydropyridazin-4-yl)-7-isopropoxy-2-((1R,4S)-1-methyl-2-oxabicyclo[2.2.1]heptan-4-yl)imidazo[1,2-a]pyridine-6-carboxamide]",1.4,40.4,1.6
"O=C(Nc1cccn([C@@H]2C[C@@H]2F)c1=O)c1cn2cc(C34COC(C3)C4)nc2nc1OC1CCC1 (racemic) [Example 86, (rac)-Cis-2-(2-oxabicyclo[2.1.1]hexan-4-yl)-7-cyclobutoxy-N-(1-(2-fluorocyclopropyl)-2-oxo-1,2-dihydropyridin-3-yl)imidazo[1,2-a]pyrimidine-6-carboxamide]",0.9,44.9,0.8
"COCC12CC(c3cn4cc(C(=O)Nc5cccn([C@H]6C[C@H]6F)c5=O)c(OC5CCC5)nc4n3)(CO1)C2 [Example 128, 7-cyclobutoxy-N-(1-((1S,2R)-2-fluorocyclopropyl)-2-oxo-1,2-dihydropyridin-3-yl)-2-(1-(methoxymethyl)-2-oxabicyclo[2.1.1]hexan-4-yl)imidazo[1,2-a]pyrimidine-6-carboxamide]",20.8,72.5,0.3
"CC(C)Oc1cc2nc([C@H]3COCCO3)cn2cc1C(=O)Nc1cccn(C2CC2)c1=O (single isomer, unassigned) [Example 70]",3.9,9.9,1.2
"C[C@]12CC[C@](c3cn4cc(C(=O)Nc5cccn(C6CC6)c5=O)c(OC5CCC5)cc4n3)(CO1)C2 (single isomer, unassigned) [Example 26]",4.1,65.3,0.7

# Continued, values first:
"efflux ratio at 120 min, 1 μM [1]",solubility kinetic at 24 h [2] [µg/mL],IC50 [3] [nM],SMILES
3.9,31.8,0.2,"CC(C)Oc1cc2nc([C@@]34CC[C@@](C)(C3)OC4)cn2cc1C(=O)Nc1cccn([C@H]2C[C@H]2C)c1=O [Example 182, 7-isopropoxy-2-((1S,4R)-1-methyl-2-oxabicyclo[2.2.1]heptan-4-yl)-N-(1-((1S,2R)-2-methylcyclopropyl)-2-oxo-1,2-dihydropyridin-3-yl)imidazo[1,2-a]pyridine-6-carboxamide trifluoroacetate]"
10.4,68.6,0.3,"CC12CC(c3cn4cc(C(=O)Nc5cccn([C@H]6C[C@H]6F)c5=O)c(OC5CCC5)nc4n3)(CO1)C2 (single isomer, unassigned) [Example 114]"
10.8,69.3,0.3,"CC(Oc1cc2nc(C34COC(C)(C3)C4)cn2cc1C(=O)Nc1cccn(C2CC2)c1=O)C(F)F [Example 102, (S)—N-(1-cyclopropyl-2-oxo-1,2-dihydropyridin-3-yl)-7-((1,1-difluoropropan-2-yl)oxy)-2-(1-methyl-2-oxabicyclo[2.1.1]hexan-4-yl)imidazo[1,2-a]pyridine-6-carboxamide]"
9.8,47.9,0.2,"CC(C)Oc1cc2nc([C@]34CC[C@](C)(C3)OC4)cn2cc1C(=O)Nc1cccn([C@H]2C[C@H]2F)c1=O [Example 171, N-(1-((1S,2R)-2-fluorocyclopropyl)-2-oxo-1,2-dihydropyridin-3-yl)-7-isopropoxy-2-((1R,4S)-1-methyl-2-oxabicyclo[2.2.1]heptan-4-yl)imidazo[1,2-a]pyridine-6-carboxamide]"
